Measured values reported in patent US20250346585A1 (Alexion Pharmaceuticals, Inc., priority 2022, published 2025).

target: Human complement C1s enzyme (Homo sapiens (Human), UniProt P09871); assay: Human C1s enzyme assay; type: biochemical; settings: Human C1s enzyme assay of Example 3; read-out: IC50 (Stars)
Protocol: Human complement C1s enzyme (purified from human serum, Complement Technology, Inc.) at 1.16 nM final concentration was incubated with test compound at various concentrations for 5 min at room temperature in 50 mM Tris, 1 M NaCl, pH 7.5. A synthetic substrate Z-L-Lys-SBzl and DTNB (Ellman's reagent) were added to final concentrations of 100 μM each. Absorbance at 405 nm (A405) was recorded at 30 second intervals for 30 min using a microplate spectrophotometer. IC50 values were calculated by nonlinear regression of complement C1s reaction rates as a function of test compound concentration.

Human complement C1s enzyme, sequence (P09871 438-688 limits assumed): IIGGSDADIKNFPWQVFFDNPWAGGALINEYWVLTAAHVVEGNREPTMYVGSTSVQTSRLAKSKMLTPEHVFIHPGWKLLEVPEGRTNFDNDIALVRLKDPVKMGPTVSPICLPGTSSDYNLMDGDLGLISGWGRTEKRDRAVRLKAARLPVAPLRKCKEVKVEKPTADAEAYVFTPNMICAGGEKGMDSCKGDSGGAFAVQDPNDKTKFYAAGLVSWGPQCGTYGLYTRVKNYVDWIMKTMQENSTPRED
Human complement C1s enzyme, sequence (P09871 16-437 partner limits assumed): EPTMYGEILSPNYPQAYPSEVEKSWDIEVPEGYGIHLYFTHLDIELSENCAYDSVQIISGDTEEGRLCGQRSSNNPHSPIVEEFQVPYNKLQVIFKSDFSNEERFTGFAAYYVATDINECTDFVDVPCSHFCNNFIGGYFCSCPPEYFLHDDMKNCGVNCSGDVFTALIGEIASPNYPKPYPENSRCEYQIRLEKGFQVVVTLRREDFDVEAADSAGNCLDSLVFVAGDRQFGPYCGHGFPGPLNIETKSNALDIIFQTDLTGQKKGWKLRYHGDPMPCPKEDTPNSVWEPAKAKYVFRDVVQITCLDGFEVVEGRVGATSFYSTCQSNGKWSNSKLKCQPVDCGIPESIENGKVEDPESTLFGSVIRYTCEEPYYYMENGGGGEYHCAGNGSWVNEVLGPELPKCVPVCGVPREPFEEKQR

| Structure (SMILES) | IC50 |
| --- | --- |
| Cc1cccc(C)c1-c1ccc(C(=O)NCC(=O)N2CC3(C[C@H]2C(=O)NCc2cc(C(=N)N)cs2)OCCO3)cc1 [Compound 197, (S)—N-((4-carbamimidoylthiophen-2-yl)methyl)-7-((2′,6′-dimethyl-[1,1′-biphenyl]-4-carbonyl)glycyl)-1,4-dioxa-7-azaspiro[4.4]nonane-8-carboxamide] | < 0.1 µM |
| Cn1ncc2cc(-c3ccc(C(=O)NCC(=O)N4CC5(C[C@H]4C(=O)NCc4cc(C(=N)N)cs4)OCCO5)cc3)ccc21 [Compound 140, (S)—N-((4-carbamimidoylthiophen-2-yl)methyl)-7-((4-(1-methyl-1H-indazol-5-yl)benzoyl)glycyl)-1,4-dioxa-7-azaspiro[4.4]nonane-8-carboxamide] | < 0.1 µM |
| C[C@@H](NC(=O)[C@@H]1C[C@](F)(CF)CN1C(=O)CNC(=O)c1ccc2c(c1)-c1ccccc1C2(F)F)c1cc(C(=N)N)cs1 [Compound 11, (2S,4R)—N-[(1R)-1-(4-carbamimidoylthiophen-2-yl)ethyl]-1-{2-[(9,9-difluorofluoren-3-yl)formamido]acetyl}-4-fluoro-4-(fluoromethyl) pyrrolidine-2-carboxamide] | < 0.1 µM |
| C[C@H]1C[C@@H](C(=O)N[C@H](C)c2cc(C(=N)N)cs2)N(C(=O)CNC(=O)c2ccc3c(c2)-c2ccccc2C3(F)F)C1 [Compound 46, (2S,4S)—N—((R)-1-(4-carbamimidoylthiophen-2-yl)ethyl)-1-((9,9-difluoro-9H-fluorene-3-carbonyl)glycyl)-4-methylpyrrolidine-2-carboxamide] | < 0.1 µM |
| O=C(NCC(=O)N1CC2(C[C@H]1C(=O)NCc1cccs1)OCCO2)c1ccc(Oc2ccc(F)cc2)cc1 [Compound 124, (S)-7-((4-(4-fluorophenoxy)benzoyl)glycyl)-N-(thiophen-2-ylmethyl)-1,4-dioxa-7-azaspiro [4.4]nonane-8-carboxamide] | > 1 µM |
| C[C@@H](NC(=O)[C@@H]1CC2(CN1C(=O)CNC(=O)c1ccc3[nH]c4ccccc4c3c1)OCCO2)c1cc(C(=N)N)cs1 [Compound 170, (S)-7-((9H-carbazole-3-carbonyl)glycyl)-N—((R)-1-(4-carbamimidoylthiophen-2-yl)ethyl)-1,4-dioxa-7-azaspiro[4.4]nonane-8-carboxamide] | < 0.1 µM |
| C[C@@H](NC(=O)[C@@H]1CC2(CN1C(=O)CNC(=O)c1ccc3c(c1)-c1ccccc1C3(F)F)OCCO2)c1cc(/C(N)=N\C(=O)Oc2ccccc2)cs1 [Compound 149, phenyl ((E)-amino(5-((R)-1-((S)-7-((9,9-difluoro-9H-fluorene-3-carbonyl)glycyl)-1,4-dioxa-7-azaspiro[4.4]nonane-8-carboxamido)ethyl)thiophen-3-yl)methylene)carbamate] | < 0.1 µM |
| Cc1cc(C(=O)NCC(=O)N2[C@H]3C[C@@]3(C)C[C@H]2C(=O)N[C@H](C)c2cc(C(=N)N)cs2)ccc1Oc1ccc(F)cc1 [Compound 27, (1S,3S,5S)—N—((R)-1-(4-carbamimidoylthiophen-2-yl)ethyl)-2-((4-(4-fluorophenoxy)-3-methylbenzoyl)glycyl)-5-methyl-2-azabicyclo[3.1.0]hexane-3-carboxamide] | < 0.1 µM |
| Cc1ccc2c(c1)-c1cc(C(=O)NCC(=O)N3CC4(C[C@H]3C(=O)N[C@H](C)c3cc(C(=N)N)cs3)OCCO4)ccc1C2(F)F [Compound 180, (S)—N—((R)-1-(4-carbamimidoylthiophen-2-yl)ethyl)-7-((9,9-difluoro-6-methyl-9H-fluorene-3-carbonyl)glycyl)-1,4-dioxa-7-azaspiro[4.4]nonane-8-carboxamide] | < 0.1 µM |
| N=C(N)c1csc(CNC(=O)[C@@H]2CC3(CN2C(=O)CNC(=O)c2ccc(-c4ccccc4)cc2)OCCO3)c1 [Compound 77, (S)-7-(([1,1′-biphenyl]-4-carbonyl)glycyl)-N-((4-carbamimidoylthiophen-2-yl)methyl)-1,4-dioxa-7-azaspiro[4.4]nonane-8-carboxamide] | < 0.1 µM |
| N=C(N)c1csc(CNC(=O)[C@@H]2CC3(CN2C(=O)CNC(=O)c2ccc(-c4cc(F)cc(F)c4)cc2)OCCO3)c1 [Compound 189, (S)—N-((4-carbamimidoylthiophen-2-yl)methyl)-7-((3′,5′-difluoro-[1,1′-biphenyl]-4-carbonyl)glycyl)-1,4-dioxa-7-azaspiro[4.4]nonane-8-carboxamide] | < 0.1 µM |
| C[C@@H](NC(=O)[C@@H]1CC2(CN1C(=O)CNC(=O)c1ccc3c(c1)-c1ccccc1C3(F)F)OCCO2)c1cc(-c2cnc(N)nc2)cs1 [Compound 100, (S)—N—((R)-1-(4-(2-aminopyrimidin-5-yl)thiophen-2-yl)ethyl)-7-((9,9-difluoro-9H-fluorene-3-carbonyl)glycyl)-1,4-dioxa-7-azaspiro[4.4]nonane-8-carboxamide] | > 1 µM |

same assay, conditions: Human complement C1s enzyme 1.16 nM, substrate Z-L-Lys-SBzl 100 μM, assay of Example 3; read-out: IC50 (Stars)

| Structure (SMILES) | IC50 |
| --- | --- |
| C[C@@H](NC(=O)[C@@H]1C[C@@](C)(F)CN1C(=O)CNC(=O)c1ccc2c(c1)-c1ccccc1C2(F)F)c1cc(C(=N)N)cs1 [Compound 268, (2S,4R)—N—((R)-1-(4-carbamimidoylthiophen-2-yl)ethyl)-1-((9,9-difluoro-9H-fluorene-3-carbonyl)glycyl)-4-fluoro-4-methylpyrrolidine-2-carboxamide] | < 0.1 µM |
| CC(C)S(=O)(=O)c1ccc(-c2ccc(C(=O)NCC(=O)N3CC4(C[C@H]3C(=O)NCc3cc(C(=N)N)cs3)OCCO4)cc2)cc1 [Compound 216, (S)—N-((4-carbamimidoylthiophen-2-yl)methyl)-7-((4′-(isopropylsulfonyl)-[1,1′-biphenyl]-4-carbonyl)glycyl)-1,4-dioxa-7-azaspiro[4.4]nonane-8-carboxamide] | < 0.1 µM |
| C[C@@H](NC(=O)[C@@H]1C[C@](F)(CF)CN1C(=O)CNC(=O)c1ccc2c(c1)-c1ccccc1S2(=O)=O)c1cc(C(=N)N)cs1 [Compound 336, (2S,4R)—N—((R)-1-(4-carbamimidoylthiophen-2-yl)ethyl)-1-((5,5-dioxidodibenzo[b,d]thiophene-2-carbonyl)glycyl)-4-fluoro-4-(fluoromethyl) pyrrolidine-2-carboxamide] | < 0.1 µM |
| NCCC(=O)Nc1csc(CNC(=O)[C@@H]2CC3(CN2C(=O)CNC(=O)c2ccc(Oc4ccc(F)cc4)cc2)OCCO3)c1 [Compound 311, (S)-N-((4-(3-aminopropanamido)thiophen-2-yl)methyl)-7-((4-(4-fluorophenoxy)benzoyl)glycyl)-1,4-dioxa-7-azaspiro[4.4]nonane-8-carboxamide] | > 1 µM |
| C[C@@H](NC(=O)[C@@H]1CC2(CN1C(=O)CNC(=O)c1ccc3c(c1)-c1ccccc1C3OC(F)F)OCCO2)c1cc(C(=N)N)cs1 (stereo partly drawn) [Compound 204] | < 0.1 µM |
| C[C@@H](NC(=O)[C@@H]1C[C@](F)(CF)CN1C(=O)CNC(=O)c1cccc(-c2ccc(F)cc2)c1)c1cc(C(=N)N)cs1 [Compound 329, (2S,4R)—N—((R)-1-(4-carbamimidoylthiophen-2-yl)ethyl)-4-fluoro-1-((4′-fluoro-[1,1′-biphenyl]-3-carbonyl)glycyl)-4-(fluoromethyl)pyrrolidine-2-carboxamide] | < 0.1 µM |
| N=C(N)c1csc(CNC(=O)[C@@H]2CC3(CN2C(=O)CNC(=O)c2ccc(-c4ccc(C(=O)O)cc4)cc2)OCCO3)c1 [Compound 214, (S)-4′-((2-(8-(((4-carbamimidoylthiophen-2-yl)methyl)carbamoyl)-1,4-dioxa-7-azaspiro[4.4]nonan-7-yl)-2-oxoethyl)carbamoyl)-[1,1′-biphenyl]-4-carboxylic acid] | < 0.1 µM |
| N=C(N)c1csc(CNC(=O)[C@@H]2CC3(CN2C(=O)CNC(=O)c2ccc(-c4ccc(F)c(F)c4)cc2)OCCO3)c1 [Compound 207, (S)—N-((4-carbamimidoylthiophen-2-yl)methyl)-7-((3′,4′-difluoro-[1,1′-biphenyl]-4-carbonyl)glycyl)-1,4-dioxa-7-azaspiro[4.4]nonane-8-carboxamide] | < 0.1 µM |
| C[C@H]1C[C@@H](C(=O)N[C@H](C)c2cc(C(=N)N)cs2)N(C(=O)CNC(=O)c2ccc3oc4ccccc4c3c2)C1 [Compound 226, (2S,4S)—N—((R)-1-(4-carbamimidoylthiophen-2-yl)ethyl)-1-((dibenzo[b,d]furan-2-carbonyl)glycyl)-4-methylpyrrolidine-2-carboxamide] | < 0.1 µM |
| C[C@@H](NC(=O)[C@@H]1C[C@]2(COCCN(C)C)C[C@@H]2N1C(=O)CNC(=O)c1ccc2c(c1)-c1ccccc1C2(F)F)c1cc(C(=N)N)cs1 [Compound 367, (1S,3S,5R)—N—((R)-1-(4-carbamimidoylthiophen-2-yl)ethyl)-2-((9,9-difluoro-9H-fluorene-3-carbonyl)glycyl)-5-((2-(dimethylamino)ethoxy)methyl)-2-azabicyclo[3.1.0]hexane-3-carboxamide] | < 0.1 µM |

same assay, conditions: Human complement C1s enzyme 1.16 nM, substrate Z-L-Lys-SBzl; assay of Example 3; read-out: IC50 (Stars)

| Structure (SMILES) | IC50 |
| --- | --- |
| N=C(N)c1csc([C@@H](CO)NC(=O)[C@@H]2C[C@@H](OC(F)F)CN2C(=O)CNC(=O)c2ccc3c(c2)-c2ccccc2C3(F)F)c1 [Compound 403, (2S,4R)—N—((R)-1-(4-carbamimidoylthiophen-2-yl)-2-hydroxyethyl)-1-((9,9-difluoro-9H-fluorene-3-carbonyl)glycyl)-4-(difluoromethoxy) pyrrolidine-2-carboxamide] | < 0.1 µM |
| CS(=O)(=O)[C@@H]1C[C@@H](C(=O)N[C@H](CO)c2cc(C(=N)N)cs2)N(C(=O)CNC(=O)c2ccc3c(c2)-c2ccccc2C3(F)F)C1 [Compound 400, (2S,4R)—N—((R)-1-(4-carbamimidoylthiophen-2-yl)-2-hydroxyethyl)-1-((9,9-difluoro-9H-fluorene-3-carbonyl)glycyl)-4-(methylsulfonyl)pyrrolidine-2-carboxamide] | < 0.1 µM |
